According to paper PMC3265362 (Biochemical Journal, 2008):
Values joined by “and” are separate entries in the source; they are usually repeats but may differ in a detail not shown here. Equal values may be shown once.

T1: human QR2 (Homo sapiens, UniProt P16083)
T1 sequence (P16083 1-231): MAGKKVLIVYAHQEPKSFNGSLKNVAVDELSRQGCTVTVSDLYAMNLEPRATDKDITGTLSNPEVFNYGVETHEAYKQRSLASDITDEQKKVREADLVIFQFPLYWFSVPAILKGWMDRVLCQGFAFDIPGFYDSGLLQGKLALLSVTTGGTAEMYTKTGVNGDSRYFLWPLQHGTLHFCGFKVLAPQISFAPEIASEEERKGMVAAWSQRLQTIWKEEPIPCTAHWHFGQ

T2: human QR2 (quinone reductase 2) (human), P16083
T2 chain: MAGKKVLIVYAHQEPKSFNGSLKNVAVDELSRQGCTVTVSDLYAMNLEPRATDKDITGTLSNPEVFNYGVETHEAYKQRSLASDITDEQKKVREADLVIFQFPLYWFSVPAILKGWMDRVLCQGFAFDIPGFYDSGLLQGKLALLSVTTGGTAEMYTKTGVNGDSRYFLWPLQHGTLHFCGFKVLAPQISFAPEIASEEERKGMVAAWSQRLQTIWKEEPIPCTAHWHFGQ


What was measured:
human QR2 [1] = molecular target: T1, human QR2; assay: ITC; type: binding; conditions: for ΔG / −TΔS / ΔH: single-site binding model; for ΔH: 50 mM Hepes pH 7.5, 100 mM NaCl, 1 mM TCEP
human QR2 [2] = molecular target: T1, human QR2; assay: Steady-state kinetics, mechanism of inhibition of QR2; type: biochemical; conditions: fixed NMeH 100 μM, various menadione
human QR2 [3] = molecular target: T1, human QR2; conditions: read-out: IC50 value, Mammalian cells; cytosolic fraction of mammalian cell lines overexpressing human QR2, dihydrobenzylnicotinamide as co-substrate; ref [37]; cited from earlier work
[4] = molecular target: T2, human QR2 (quinone reductase 2) …; assay: crystal structure; conditions: remark: other sources report otherwise

| h (Hill coefficient, a measure of the stoichiometry of binding) (human QR2 [1]) | ΔG (human QR2 [1]) | −TΔS (human QR2 [1]) | ΔH (human QR2 [1]) | ΔH (human QR2 [1]; listed as 2-iodomelatonin) | Ki (uncompetitive against menadione) (human QR2 [2]) | ΔH (human QR2 [1]; listed as melatonin) | stoichiometry N [4] | Molecule | IC50 (human QR2 [3]) |
| --- | --- | --- | --- | --- | --- | --- | --- | --- | --- |
| 0.8 | -8.5 ± 0.38 kcal/mol | -0.65 ± 0.24 kcal/mol | -7.85 ± 0.62 kcal/mol | -7.85 kcal/mol | – | – | – | COc1ccc2[nH]c(I)c(CCNC(C)=O)c2c1 [2-Iodomelatonin] | – |
| 0.8 | -8.07 ± 0.3 kcal/mol | 2.38 ± 0.11 kcal/mol | -10.45 ± 0.4 kcal/mol | – | 92 µM and 91.6 ± 4.6 µM | -10.45 kcal/mol | – | COc1ccc2[nH]cc(CCNC(C)=O)c2c1 [Melatonin] | – |
| – | – | – | – | – | – | – | – | CC(=O)NCCc1c[nH]c2ccc(O)cc12 [N-Acetyl-5-hydroxytryptamine] | 99 ± 14 µM |
| 0.9 | -9.8 ± 0.50 kcal/mol | 5.01 ± 0.61 kcal/mol | -14.6 ± 0.15 kcal/mol | – | – | – | – | Oc1ccc(/C=C/c2cc(O)cc(O)c2)cc1 [Resveratrol] | – |
| – | – | – | – | – | – | – | 2 | human QR2 (quinone reductase 2), P16083 1-231 (enzyme) MAGKKVLIVYAHQEPKSFNGSLKNVAVDELSRQGCTVTVSDLYAMNLEPRATDKDITGTLSNPEVFNYGVETHEAYKQRSLASDITDEQKKVREADLVIFQFPLYWFSVPAILKGWMDRVLCQGFAFDIPGFYDSGLLQGKLALLSVTTGGTAEMYTKTGVNGDSRYFLWPLQHGTLHFCGFKVLAPQISFAPEIASEEERKGMVAAWSQRLQTIWKEEPIPCTAHWHFGQ | – |
